{"source": "patent US20260325540A1", "about": "(priority 2023, published 2026)", "key": {"SARS-CoV-2 3CLpro": {"target": "SARS-CoV-2 3CLpro (Severe acute respiratory syndrome coronavirus 2, UniProt P0DTD1)", "test": "FRET based protease assay, SARS-CoV-2 3CL", "format": "biochemical, SARS-CoV-2 (strain BetaCoV/Wuhan/WIV04/2019)"}, "MERS-CoV 3CLpro": {"target": "MERS-CoV 3CLpro (Middle East respiratory syndrome-related coronavirus, UniProt K9N638)", "sequence (K9N638 3248-3553 limits assumed)": "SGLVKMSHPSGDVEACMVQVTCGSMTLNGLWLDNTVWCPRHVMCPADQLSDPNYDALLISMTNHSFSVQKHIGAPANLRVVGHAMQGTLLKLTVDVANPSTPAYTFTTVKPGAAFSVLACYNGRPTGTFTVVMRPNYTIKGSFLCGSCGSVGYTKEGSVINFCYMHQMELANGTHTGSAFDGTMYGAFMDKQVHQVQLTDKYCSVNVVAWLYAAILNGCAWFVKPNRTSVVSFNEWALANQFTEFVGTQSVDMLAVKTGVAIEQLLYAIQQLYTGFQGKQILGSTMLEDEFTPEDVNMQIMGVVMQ", "test": "biochemical", "conditions": "MERS IC50, 75 nM MERS-CoV 3CLpro, 6 μM peptide 1 substrate, 25° C., 1.5 hrs, pH 7.5"}}, "data": [{"compound": "N#C[C@@H]1C[C@@H]2C(=O)NC[C@@H]2CCCC[C@H](NC(=O)C2CC(F)(F)C2)C(=O)N2C[C@@H]3CCC[C@@H]3[C@H]2C(=O)N1", "note": "[Example 84]", "values": [{"measurement": "IC50", "setting": "SARS-CoV-2 3CLpro", "result": "< 100", "unit": "nM"}, {"measurement": "IC50", "setting": "MERS-CoV 3CLpro", "result": "100 to 1000", "unit": "nM"}]}, {"compound": "CC1(C)[C@@H]2[C@H]3C(=O)N[C@H](C#N)C[C@@H]4C(=O)NC[C@@H]4CCCC[C@H](NC(=O)C4CCOCC4)C(=O)N3C[C@@H]21", "note": "[Example 85]", "values": [{"measurement": "IC50", "setting": "SARS-CoV-2 3CLpro", "result": "< 100", "unit": "nM"}, {"measurement": "IC50", "setting": "MERS-CoV 3CLpro", "result": "< 100", "unit": "nM"}]}, {"compound": "CC(C)(C)C(=O)N[C@H]1CC/C=C/[C@H]2CNC(=O)[C@H]2C[C@@H](C#N)NC(=O)[C@@H]2[C@H]3CCC[C@H]3CN2C1=O", "note": "[Example 86]", "values": [{"measurement": "IC50", "setting": "SARS-CoV-2 3CLpro", "result": "< 100", "unit": "nM"}, {"measurement": "IC50", "setting": "MERS-CoV 3CLpro", "result": "100 to 1000", "unit": "nM"}]}, {"compound": "CC1(C)[C@@H]2[C@H]3C(=O)N[C@H](C#N)C[C@@H]4C(=O)NC[C@@H]4CCCC[C@H](NC(=O)C(F)(F)F)C(=O)N3C[C@@H]21", "note": "[Example 87]", "values": [{"measurement": "IC50", "setting": "SARS-CoV-2 3CLpro", "result": "< 100", "unit": "nM"}, {"measurement": "IC50", "setting": "MERS-CoV 3CLpro", "result": "< 100", "unit": "nM"}]}, {"compound": "N#C[C@@H]1C[C@@H]2C(=O)NC[C@@H]2CCCC[C@H](NC(=O)C(F)(F)F)C(=O)N2C[C@@H]3CCC[C@@H]3[C@H]2C(=O)N1", "note": "[Example 88]", "values": [{"measurement": "IC50", "setting": "SARS-CoV-2 3CLpro", "result": "< 100", "unit": "nM"}, {"measurement": "IC50", "setting": "MERS-CoV 3CLpro", "result": "100 to 1000", "unit": "nM"}]}, {"compound": "CC1(C)[C@@H]2[C@H]3C(=O)N[C@H](C#N)C[C@@H]4C(=O)NC[C@@H]4CCCC[C@H](NC(=O)CC4CC(F)(F)C4)C(=O)N3C[C@@H]21", "note": "[Example 89]", "values": [{"measurement": "IC50", "setting": "SARS-CoV-2 3CLpro", "result": "< 100", "unit": "nM"}, {"measurement": "IC50", "setting": "MERS-CoV 3CLpro", "result": "100 to 1000", "unit": "nM"}]}, {"compound": "CC1(C)[C@@H]2[C@H]3C(=O)N[C@H](C#N)C[C@@H]4C(=O)NC[C@@H]4CCCC[C@H](NC(=O)CC4CCCC4)C(=O)N3C[C@@H]21", "note": "[Example 90]", "values": [{"measurement": "IC50", "setting": "SARS-CoV-2 3CLpro", "result": "< 100", "unit": "nM"}, {"measurement": "IC50", "setting": "MERS-CoV 3CLpro", "result": "100 to 1000", "unit": "nM"}]}, {"compound": "CC1(C)[C@@H]2[C@H]3C(=O)N[C@H](C#N)C[C@@H]4C(=O)NC[C@@H]4CCCC[C@H](NC(=O)c4ccncn4)C(=O)N3C[C@@H]21", "note": "[Example 91]", "values": [{"measurement": "IC50", "setting": "SARS-CoV-2 3CLpro", "result": "< 100", "unit": "nM"}, {"measurement": "IC50", "setting": "MERS-CoV 3CLpro", "result": "< 100", "unit": "nM"}]}, {"compound": "CC(C)(C)OC(=O)N[C@H]1CC/C=C/[C@H]2CNC(=O)[C@H]2C[C@@H](C#N)NC(=O)[C@@H]2[C@@H]3[C@H](CN2C1=O)C3(C)C", "note": "[Example 92]", "values": [{"measurement": "IC50", "setting": "SARS-CoV-2 3CLpro", "result": "< 100", "unit": "nM"}, {"measurement": "IC50", "setting": "MERS-CoV 3CLpro", "result": "< 100", "unit": "nM"}]}, {"compound": "N#C[C@@H]1C[C@@H]2C(=O)NCC[C@@H]2CCCC[C@H](NC(=O)OC2CCCC2)C(=O)N2C[C@@H]3CCC[C@@H]3[C@H]2C(=O)N1", "note": "[Example 93]", "values": [{"measurement": "IC50", "setting": "SARS-CoV-2 3CLpro", "result": "< 100", "unit": "nM"}, {"measurement": "IC50", "setting": "MERS-CoV 3CLpro", "result": "100 to 1000", "unit": "nM"}]}, {"compound": "N#C[C@@H]1C[C@@H]2C(=O)NC[C@@H]2CCCC[C@H](NC(=O)OC2CCCC2)C(=O)N2C[C@@H]3CCC[C@@H]3[C@H]2C(=O)N1", "note": "[Example 94]", "values": [{"measurement": "IC50", "setting": "SARS-CoV-2 3CLpro", "result": "< 100", "unit": "nM"}, {"measurement": "IC50", "setting": "MERS-CoV 3CLpro", "result": "< 100", "unit": "nM"}]}, {"compound": "CC(C)(C)CC(=O)N[C@H]1CCCC[C@H]2CCNC(=O)[C@H]2C[C@@H](C#N)NC(=O)[C@@H]2[C@H]3CCC[C@H]3CN2C1=O", "note": "[Example 95]", "values": [{"measurement": "IC50", "setting": "SARS-CoV-2 3CLpro", "result": "< 100", "unit": "nM"}, {"measurement": "IC50", "setting": "MERS-CoV 3CLpro", "result": "100 to 1000", "unit": "nM"}]}, {"compound": "CC(C)(C)OC(=O)N[C@H]1CC/C=C\\[C@H]2CCNC(=O)[C@H]2CC(C#N)NC(=O)[C@@H]2[C@H]3CCC[C@H]3CN2C1=O", "note": "(stereo partly drawn) [Example 97]", "values": [{"measurement": "IC50", "setting": "SARS-CoV-2 3CLpro", "result": "< 100", "unit": "nM"}, {"measurement": "IC50", "setting": "MERS-CoV 3CLpro", "result": "100 to 1000", "unit": "nM"}]}, {"compound": "CC(C)(C)OC(=O)N[C@H]1CCCC[C@H]2CCNC(=O)C2C[C@@H](C#N)NC(=O)[C@@H]2[C@H]3CCC[C@H]3CN2C1=O", "note": "(stereo partly drawn) [Example 98]", "values": [{"measurement": "IC50", "setting": "SARS-CoV-2 3CLpro", "result": "100 to 1000", "unit": "nM"}, {"measurement": "IC50", "setting": "MERS-CoV 3CLpro", "result": "100 to 1000", "unit": "nM"}]}, {"compound": "CC(C)(C)OC(=O)N[C@H]1CC/C=C/[C@H]2CCNC(=O)[C@H]2C[C@@H](C#N)NC(=O)[C@@H]2[C@H]3CCC[C@H]3CN2C1=O", "note": "[Example 99]", "values": [{"measurement": "IC50", "setting": "SARS-CoV-2 3CLpro", "result": "100 to 1000", "unit": "nM"}, {"measurement": "IC50", "setting": "MERS-CoV 3CLpro", "result": "1000 to 20000", "unit": "nM"}]}, {"compound": "CC(C)(C)OC(=O)N[C@H]1CCC[C@H]2CCNC(=O)[C@H]2C[C@@H](C#N)NC(=O)[C@@H]2[C@H]3CCC[C@H]3CN2C1=O", "note": "[Example 100]", "values": [{"measurement": "IC50", "setting": "SARS-CoV-2 3CLpro", "result": "1000 to 20000", "unit": "nM"}, {"measurement": "IC50", "setting": "MERS-CoV 3CLpro", "result": "1000 to 20000", "unit": "nM"}]}, {"compound": "N#C[C@@H]1C[C@@H]2C(=O)NC[C@@H]2/C=C/CC[C@H](NC(=O)C(F)(F)F)C(=O)N2C[C@@H]3CCC[C@@H]3[C@H]2C(=O)N1", "note": "[Example 101]", "values": [{"measurement": "IC50", "setting": "SARS-CoV-2 3CLpro", "result": "< 100", "unit": "nM"}, {"measurement": "IC50", "setting": "MERS-CoV 3CLpro", "result": "100 to 1000", "unit": "nM"}]}, {"compound": "CC(C)(C)OC(=O)N[C@H]1COCCC[C@H]2CNC(=O)[C@H]2C[C@@H](C#N)NC(=O)[C@@H]2[C@@H]3[C@H](CN2C1=O)C3(C)C", "note": "[Example 102]", "values": [{"measurement": "IC50", "setting": "SARS-CoV-2 3CLpro", "result": "< 100", "unit": "nM"}, {"measurement": "IC50", "setting": "MERS-CoV 3CLpro", "result": "100 to 1000", "unit": "nM"}]}, {"compound": "CC1(C)[C@@H]2[C@H]3C(=O)N[C@H](C#N)C[C@@H]4C(=O)NC[C@@H]4CCCC[C@H](NC(=O)c4ccc(F)cc4F)C(=O)N3C[C@@H]21", "note": "[Example 103]", "values": [{"measurement": "IC50", "setting": "SARS-CoV-2 3CLpro", "result": "< 100", "unit": "nM"}, {"measurement": "IC50", "setting": "MERS-CoV 3CLpro", "result": "< 100", "unit": "nM"}]}, {"compound": "CC1(C)[C@@H]2[C@H]3C(=O)N[C@H](C#N)C[C@@H]4C(=O)NCC[C@@H]4CCCC[C@H](NC(=O)C(F)(F)F)C(=O)N3C[C@@H]21", "note": "[Example 104]", "values": [{"measurement": "IC50", "setting": "SARS-CoV-2 3CLpro", "result": "< 100", "unit": "nM"}, {"measurement": "IC50", "setting": "MERS-CoV 3CLpro", "result": "< 100", "unit": "nM"}]}, {"compound": "CC(C)(C)OC(=O)N[C@H]1CCCC[C@H]2CNC(=O)[C@H]2C[C@@H](C#N)NC(=O)[C@@H]2CC3(CC3)CN2C1=O", "note": "[Example 105]", "values": [{"measurement": "IC50", "setting": "SARS-CoV-2 3CLpro", "result": "100 to 1000", "unit": "nM"}, {"measurement": "IC50", "setting": "MERS-CoV 3CLpro", "result": "100 to 1000", "unit": "nM"}]}, {"compound": "CC(C)(C)COC(=O)N[C@H]1CCCC[C@H]2CNC(=O)[C@H]2C[C@@H](C#N)NC(=O)[C@@H]2[C@@H]3[C@H](CN2C1=O)C3(C)C", "note": "[Example 106]", "values": [{"measurement": "IC50", "setting": "SARS-CoV-2 3CLpro", "result": "< 100", "unit": "nM"}, {"measurement": "IC50", "setting": "MERS-CoV 3CLpro", "result": "100 to 1000", "unit": "nM"}]}, {"compound": "CC1(C)[C@@H]2[C@H]3C(=O)N[C@H](C#N)C[C@@H]4C(=O)NC[C@@H]4CCCC[C@H](NC(=O)c4cncnc4)C(=O)N3C[C@@H]21", "note": "[Example 107]", "values": [{"measurement": "IC50", "setting": "SARS-CoV-2 3CLpro", "result": "< 100", "unit": "nM"}, {"measurement": "IC50", "setting": "MERS-CoV 3CLpro", "result": "< 100", "unit": "nM"}]}, {"compound": "CC1(C)[C@@H]2[C@H]3C(=O)N[C@H](C#N)C[C@@H]4C(=O)NC[C@@H]4/C=C/CC[C@H](NC(=O)C(F)(F)F)C(=O)N3C[C@@H]21", "note": "[Example 108]", "values": [{"measurement": "IC50", "setting": "SARS-CoV-2 3CLpro", "result": "< 100", "unit": "nM"}, {"measurement": "IC50", "setting": "MERS-CoV 3CLpro", "result": "< 100", "unit": "nM"}]}]}
